Measured values from PubChem BioAssay (NCI).
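Where inhibition never reached the appropriate level, the endpoint shown equals the highest concentration tested. Otherwise, values were interpolated linearly from a five-concentration, 48-hour dose response in 96-well plates. GI50: concentration for 50% inhibition of growth. TGI: concentration producing complete growth inhibition.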

Assays:
Test in all cases: NCI anticancer screen, dose series, 48 h
IGROV1 ovarian = system: IGROV1 ovarian
CAKI-1 renal = system: CAKI-1 renal
OVCAR-8 ovarian = system: OVCAR-8 ovarian
SNB-75 CNS = system: SNB-75 CNS
UACC-257 melanoma = system: UACC-257 melanoma
OVCAR-5 ovarian = system: OVCAR-5 ovarian
786-0 renal = system: 786-0 renal
HT29 colon = system: HT29 colon

Row | Compound | GI50 (IGROV1 ovarian) [µM] | TGI (IGROV1 ovarian) [µM] | GI50 (CAKI-1 renal) [µM] | TGI (CAKI-1 renal) [µM] | GI50 (OVCAR-8 ovarian) [µM] | TGI (OVCAR-8 ovarian) [µM] | GI50 (SNB-75 CNS) [µM] | TGI (SNB-75 CNS) [µM] | GI50 (UACC-257 melanoma) [µM] | TGI (UACC-257 melanoma) [µM] | GI50 (OVCAR-5 ovarian) [µM] | TGI (OVCAR-5 ovarian) [µM] | GI50 (786-0 renal) [µM] | TGI (786-0 renal) [µM] | GI50 (HT29 colon) [µM] | TGI (HT29 colon) [µM]
1 | Cc1nc2c(cnn2-c2ccnc3c(C(F)(F)F)cccc23)c(=O)o1 | > 100 | > 100 | > 100 | > 100 | > 100 | > 100 | > 100 | > 100 | > 100 | > 100 | > 100 | > 100 | > 100 | > 100 | > 100 | > 100
2 | O=P(O)(O)OC1C(OP(=O)(O)O)C(OP(=O)(O)O)C(OP(=O)(O)O)C(OP(=O)(O)O)C1OP(=O)(O)O (stereo unspecified) | > 2000 | > 2000 | > 1560 | > 2000 | > 2000 | > 2000 | > 1120 | > 2000 | > 2000 | > 2000 | > 2000 | > 2000 | > 2000 | > 2000 | > 2000 | > 2000
3 | O=c1[nH]nc(-c2ccccc2)c(-c2ccccc2)c1-n1nc(-c2ccccc2)c2ccccc2c1=O | – | > 100 | – | > 100 | – | > 100 | – | > 100 | – | > 100 | – | > 100 | – | > 100 | – | > 100
4 | C=C1C(=O)OC(CCCCCCCC)C1C(=O)O (stereo unspecified) | 21.8 | 48.3 | 16 | 34.9 | 19.4 | 45.9 | 16 | 34.6 | 11.6 | 25 | 17 | 31.8 | 18.2 | 36.7 | 22.1 | 47.2
5 | COc1ccc(CN2CCc3c(Cl)nc(N)nc3C2=O)c(OC)c1 | 7.56 | 26.9 | 43.6 | > 100 | 26.9 | > 100 | 14.4 | 32.7 | 19.3 | 49.1 | 21.1 | 46.7 | 23.9 | 48.1 | 15.2 | 29.1
6 | N#Cc1c(N)nn(C(=O)c2ccc(NC(=O)c3ccccn3)cc2)c1-c1ccc(Cl)cc1 | 2.63 | 16.8 | 2.06 | 6.3 | 3.38 | 17.7 | 1.86 | 4.07 | 4.34 | 68.3 | 8.65 | > 100 | 2.97 | 8.54 | 3.55 | > 100
7 | CC1CN(CCO)CC(C)O1 (stereo unspecified) | – | > 100 | – | > 100 | – | > 100 | – | > 100 | – | > 100 | – | > 100 | – | > 100 | – | > 100
